Experimental data from ChEMBL document CHEMBL1201862, “PubChem BioAssay data set” (2004).
The source made the active and inactive calls.

Columns and labels:
[1] = target: T1, Sentrin-specific protease 8 (Homo sapiens, UniProt Q96LD8); format: functional;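 further: kinetic enzyme assay of SENP8 cleaving a Nedd8 protein substrate, dose-response confirmation of screening hits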
T1 sequence (Q96LD8 whole entry): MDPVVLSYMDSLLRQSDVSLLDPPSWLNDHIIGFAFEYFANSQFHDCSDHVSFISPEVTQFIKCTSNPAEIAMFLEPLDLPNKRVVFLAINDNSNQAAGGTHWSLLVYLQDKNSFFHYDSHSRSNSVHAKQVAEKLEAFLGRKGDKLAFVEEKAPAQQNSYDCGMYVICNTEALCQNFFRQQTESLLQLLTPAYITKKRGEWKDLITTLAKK

[2] = tested on: Vero; assay: viability of Vero cells under compound – cytotoxicity control for flavivirus capping enzyme inhibitors (AID 588742); format: functional; details: Chlorocebus sabaeus
[3] = decrease of insulin promoter-GFP reporter – imaging, high-content screening, mouse beta cells (AID 1628); format: functional; details: MIN6
[4] = target: Nonstructural protein 1 (Influenza A virus, UniProt Q194T2); format: functional, Influenza A virus (A/California/07/2009(H1N1))
[5] = target: Tyrosine-protein kinase JAK3 (Homo sapiens, UniProt P52333); format: functional
[6] = target: RAC-alpha serine/threonine-protein kinase (Homo sapiens, UniProt P31749); format: functional;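 further: AKT1 affinity measured as one member of a kinome-wide kinase profiling panel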
[7] = target: Macrophage colony-stimulating factor 1 receptor (Homo sapiens, UniProt P07333); format: functional;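 further: value comes from the Navigating the Kinome screening panel, CSF1R member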
[8] = target: Leukocyte tyrosine kinase receptor (Homo sapiens, UniProt P29376); assay: Navigating the Kinome. Panel member name: LTK; format: functional
[9] = target: Ephrin type-A receptor 2 (Homo sapiens, UniProt P29317); format: functional;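 further: EPHA2 tested as one member of a kinome-wide kinase panel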
[10] = target: Casein kinase I isoform alpha (Homo sapiens, UniProt P48729); format: functional
[11] = target: Serine/threonine-protein kinase D3 (Homo sapiens, UniProt O94806); format: functional;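 further: determined within a kinase panel screen, with PRKCN as the panel member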
[12] = target: cAMP-dependent protein kinase catalytic subunit PRKX (Homo sapiens, UniProt P51817); format: functional
cAMP-dependent protein kinase catalytic subunit PRKX, sequence (P51817 whole entry): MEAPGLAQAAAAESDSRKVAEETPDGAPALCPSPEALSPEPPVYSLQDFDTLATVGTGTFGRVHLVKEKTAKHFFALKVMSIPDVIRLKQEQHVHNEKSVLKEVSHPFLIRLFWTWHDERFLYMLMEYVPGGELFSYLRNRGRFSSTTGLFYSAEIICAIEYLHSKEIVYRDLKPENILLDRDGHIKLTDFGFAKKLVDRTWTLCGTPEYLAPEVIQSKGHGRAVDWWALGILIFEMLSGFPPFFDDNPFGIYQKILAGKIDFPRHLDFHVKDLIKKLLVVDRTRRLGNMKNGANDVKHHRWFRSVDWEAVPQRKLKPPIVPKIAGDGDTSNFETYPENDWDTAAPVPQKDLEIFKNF

[13] = target: Activated CDC42 kinase 1 (Homo sapiens, UniProt Q07912); assay: Navigating the Kinome. Panel member name: ACK1; format: functional
[14] = target: cGMP-dependent protein kinase 1 (Homo sapiens, UniProt Q13976); format: functional;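 further: value from a kinome panel screen with PRKG1 as the panel member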
[15] = target: Proto-oncogene tyrosine-protein kinase receptor Ret (Homo sapiens, UniProt P07949); format: functional;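 further: measured within a kinome-wide profiling panel, RET as the panel member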
[16] = target: Mitogen-activated protein kinase 13 (Homo sapiens, UniProt O15264); format: functional
[17] = target: Dual specificity mitogen-activated protein kinase kinase 1 (Homo sapiens, UniProt Q02750); assay: Navigating the Kinome. Panel member name: MAP2K1; format: functional
[18] = target: Serine/threonine-protein kinase pim-2 (Homo sapiens, UniProt Q9P1W9); format: functional;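 further: value comes from a broad kinase panel profiling study in which PIM2 was one of the panel members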
[19] = target: Platelet-derived growth factor receptor alpha (Homo sapiens, UniProt P16234); assay: Navigating the Kinome. Panel member name: PDGFRA; format: functional
[20] = target: Serine/threonine-protein kinase DCLK1 (Homo sapiens, UniProt O15075); format: functional;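 further: affinity for DCLK1 (listed as DCAMKL1) measured as one member of a kinome-wide kinase profiling panel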
[21] = target: Tyrosine-protein kinase Srms (Homo sapiens, UniProt Q9H3Y6); format: functional;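 further: SRMS measured as one member of a kinome-wide kinase profiling panel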
[22] = target: Lymphokine-activated killer T-cell-originated protein kinase (Homo sapiens, UniProt Q96KB5); format: functional;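 further: value comes from a kinase panel screen in which TOPK was one of the panel members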
[23] = target: Non-receptor tyrosine-protein kinase TYK2 (Homo sapiens, UniProt P29597); format: functional
Non-receptor tyrosine-protein kinase TYK2, sequence (P29597 whole entry): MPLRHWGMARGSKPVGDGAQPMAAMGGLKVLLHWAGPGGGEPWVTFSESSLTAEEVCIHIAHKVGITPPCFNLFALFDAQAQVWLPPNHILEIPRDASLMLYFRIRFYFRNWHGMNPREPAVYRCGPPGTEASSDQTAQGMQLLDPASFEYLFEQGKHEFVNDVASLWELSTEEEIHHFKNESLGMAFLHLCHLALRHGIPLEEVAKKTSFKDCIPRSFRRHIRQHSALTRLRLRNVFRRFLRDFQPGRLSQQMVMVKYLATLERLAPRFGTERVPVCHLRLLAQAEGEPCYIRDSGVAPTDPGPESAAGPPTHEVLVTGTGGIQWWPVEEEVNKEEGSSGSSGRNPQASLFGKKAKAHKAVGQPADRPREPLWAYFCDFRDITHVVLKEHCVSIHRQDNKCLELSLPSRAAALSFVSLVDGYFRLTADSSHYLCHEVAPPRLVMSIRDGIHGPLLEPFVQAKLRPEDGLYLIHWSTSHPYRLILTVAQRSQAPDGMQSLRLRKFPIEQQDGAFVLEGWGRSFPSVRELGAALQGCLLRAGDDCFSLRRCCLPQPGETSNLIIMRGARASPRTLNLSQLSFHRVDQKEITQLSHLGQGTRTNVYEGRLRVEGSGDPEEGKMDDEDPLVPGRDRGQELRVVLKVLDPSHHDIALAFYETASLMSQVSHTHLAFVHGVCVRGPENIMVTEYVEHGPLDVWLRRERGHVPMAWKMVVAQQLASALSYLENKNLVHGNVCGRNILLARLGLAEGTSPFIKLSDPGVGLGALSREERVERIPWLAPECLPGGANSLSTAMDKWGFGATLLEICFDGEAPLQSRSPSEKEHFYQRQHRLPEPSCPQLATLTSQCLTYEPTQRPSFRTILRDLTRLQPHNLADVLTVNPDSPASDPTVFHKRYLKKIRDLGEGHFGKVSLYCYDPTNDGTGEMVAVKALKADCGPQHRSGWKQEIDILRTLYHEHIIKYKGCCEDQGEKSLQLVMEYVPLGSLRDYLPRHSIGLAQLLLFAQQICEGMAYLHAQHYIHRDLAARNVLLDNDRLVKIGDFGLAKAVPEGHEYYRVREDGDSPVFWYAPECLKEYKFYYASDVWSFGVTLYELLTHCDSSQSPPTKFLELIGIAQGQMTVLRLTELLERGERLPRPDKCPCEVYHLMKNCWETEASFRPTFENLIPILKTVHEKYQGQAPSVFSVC

[24] = target: Serine/threonine-protein kinase Nek4 (Homo sapiens, UniProt P51957); format: functional
[25] = target: Tyrosine-protein kinase BTK (Homo sapiens, UniProt Q06187); format: functional
[26] = target: Mitogen-activated protein kinase kinase kinase kinase 2 (Homo sapiens, UniProt Q12851); format: functional;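 further: measured as one member of a kinome-wide kinase panel, with MAP4K2 as the panel entry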
[27] = target: Maternal embryonic leucine zipper kinase (Homo sapiens, UniProt Q14680); format: functional
[28] = target: 3-phosphoinositide-dependent protein kinase 1 (Homo sapiens, UniProt O15530); format: functional;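 further: value comes from the Navigating the Kinome panel, PDPK1 member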
[29] = target: Misshapen-like kinase 1 (Homo sapiens, UniProt Q8N4C8); format: functional;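 further: kinome panel screen with MINK as the panel member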
[30] = target: Serine/threonine-protein kinase PLK3 (Homo sapiens, UniProt Q9H4B4); format: functional
[31] = target: Proto-oncogene tyrosine-protein kinase Src (Homo sapiens, UniProt P12931); format: functional;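 further: SRC entry within a kinome-wide kinase profiling panel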
Proto-oncogene tyrosine-protein kinase Src, sequence (P12931 2-536 limits assumed): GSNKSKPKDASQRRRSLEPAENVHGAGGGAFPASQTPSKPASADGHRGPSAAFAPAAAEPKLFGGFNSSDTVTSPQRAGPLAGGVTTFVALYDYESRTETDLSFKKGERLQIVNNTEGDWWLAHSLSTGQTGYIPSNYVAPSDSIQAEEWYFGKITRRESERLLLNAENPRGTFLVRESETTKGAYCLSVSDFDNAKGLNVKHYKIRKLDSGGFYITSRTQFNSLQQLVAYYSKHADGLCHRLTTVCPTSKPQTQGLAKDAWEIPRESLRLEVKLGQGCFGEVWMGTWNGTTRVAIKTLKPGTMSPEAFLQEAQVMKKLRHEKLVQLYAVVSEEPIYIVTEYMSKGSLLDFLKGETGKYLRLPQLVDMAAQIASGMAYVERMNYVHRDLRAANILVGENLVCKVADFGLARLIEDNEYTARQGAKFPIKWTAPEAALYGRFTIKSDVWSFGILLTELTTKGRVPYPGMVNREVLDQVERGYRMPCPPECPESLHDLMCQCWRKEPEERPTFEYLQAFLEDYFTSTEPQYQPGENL

[32] = target: Serine/threonine-protein kinase PLK4 (Homo sapiens, UniProt O00444); format: functional;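 further: PLK4 measured as one member of a kinome-wide kinase profiling panel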
[33] = target: Hepatocyte growth factor receptor (Homo sapiens, UniProt P08581); format: functional;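 further: kinase panel profiling across the kinome, with MET as the panel member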
[34] = target: Tyrosine-protein kinase Fyn (Homo sapiens, UniProt P06241); format: functional
[35] = target: Tyrosine-protein kinase Lck (Homo sapiens, UniProt P06239); format: functional;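 further: lck was assayed as one member of a kinase panel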
[36] = target: Insulin-like growth factor 1 receptor (Homo sapiens, UniProt P08069); assay: Navigating the Kinome. Panel member name: IGF1R; format: functional
[37] = target: Serine/threonine-protein kinase TAO1 (Homo sapiens, UniProt Q7L7X3); format: functional
[38] = target: Calcium/calmodulin-dependent protein kinase type II subunit delta (Homo sapiens, UniProt Q13557); format: functional
[39] = target: Serine/threonine-protein kinase PAK 4 (Homo sapiens, UniProt O96013); format: functional;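 further: value obtained within a kinome profiling panel in which PAK4 was one of the panel members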
[40] = target: Ribosomal protein S6 kinase beta-1 (Homo sapiens, UniProt P23443); format: functional;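 further: measured as one member of a kinome-wide profiling panel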
[41] = target: Vascular endothelial growth factor receptor 1 (Homo sapiens, UniProt P17948); format: functional;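 further: measured within a kinome-wide profiling panel, FLT1 as the panel member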
Vascular endothelial growth factor receptor 1, sequence (P17948 whole entry): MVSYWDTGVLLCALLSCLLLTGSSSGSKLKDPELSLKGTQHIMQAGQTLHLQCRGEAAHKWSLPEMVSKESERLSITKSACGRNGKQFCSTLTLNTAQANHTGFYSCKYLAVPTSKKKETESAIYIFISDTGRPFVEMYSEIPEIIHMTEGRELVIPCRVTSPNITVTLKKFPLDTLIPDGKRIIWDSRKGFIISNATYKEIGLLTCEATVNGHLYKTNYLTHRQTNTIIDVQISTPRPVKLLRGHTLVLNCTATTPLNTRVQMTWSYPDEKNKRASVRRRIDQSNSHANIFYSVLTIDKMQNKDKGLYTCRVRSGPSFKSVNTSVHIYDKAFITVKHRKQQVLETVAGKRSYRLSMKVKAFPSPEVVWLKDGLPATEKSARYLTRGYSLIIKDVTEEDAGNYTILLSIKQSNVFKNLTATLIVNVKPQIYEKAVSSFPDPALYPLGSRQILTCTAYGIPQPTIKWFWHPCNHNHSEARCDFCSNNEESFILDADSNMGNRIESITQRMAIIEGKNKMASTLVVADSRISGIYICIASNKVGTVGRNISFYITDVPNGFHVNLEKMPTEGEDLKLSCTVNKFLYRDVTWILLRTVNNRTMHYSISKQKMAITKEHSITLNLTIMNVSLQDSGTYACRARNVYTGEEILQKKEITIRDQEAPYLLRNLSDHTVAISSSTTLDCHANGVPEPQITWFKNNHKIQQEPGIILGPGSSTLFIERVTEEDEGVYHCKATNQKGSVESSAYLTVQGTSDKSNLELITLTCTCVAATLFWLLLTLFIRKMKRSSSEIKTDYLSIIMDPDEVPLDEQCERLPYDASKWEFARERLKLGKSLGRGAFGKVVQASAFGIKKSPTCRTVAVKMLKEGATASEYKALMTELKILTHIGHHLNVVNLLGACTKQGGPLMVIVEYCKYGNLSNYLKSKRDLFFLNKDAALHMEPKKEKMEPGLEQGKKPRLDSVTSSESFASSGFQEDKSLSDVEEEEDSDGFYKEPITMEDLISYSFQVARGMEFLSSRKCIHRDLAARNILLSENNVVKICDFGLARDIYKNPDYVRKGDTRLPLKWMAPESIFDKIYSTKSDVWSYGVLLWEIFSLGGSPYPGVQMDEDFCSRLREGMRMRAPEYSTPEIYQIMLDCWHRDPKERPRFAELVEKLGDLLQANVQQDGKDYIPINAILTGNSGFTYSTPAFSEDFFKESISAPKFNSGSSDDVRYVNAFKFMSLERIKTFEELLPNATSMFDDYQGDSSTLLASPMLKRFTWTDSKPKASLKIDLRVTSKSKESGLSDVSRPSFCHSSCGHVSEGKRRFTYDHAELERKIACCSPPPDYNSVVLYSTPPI

[42] = target: MAP kinase-activated protein kinase 2 (Homo sapiens, UniProt P49137); format: functional;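 further: measured as one member of a kinome-wide kinase panel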
[43] = target: Tyrosine-protein kinase HCK (Homo sapiens, UniProt P08631); assay: Navigating the Kinome. Panel member name: HCK; format: functional
[44] = target: ALK tyrosine kinase receptor (Homo sapiens, UniProt Q9UM73); format: functional;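 further: ALK tested as one member of a kinase panel screen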
ALK tyrosine kinase receptor, sequence (Q9UM73 whole entry): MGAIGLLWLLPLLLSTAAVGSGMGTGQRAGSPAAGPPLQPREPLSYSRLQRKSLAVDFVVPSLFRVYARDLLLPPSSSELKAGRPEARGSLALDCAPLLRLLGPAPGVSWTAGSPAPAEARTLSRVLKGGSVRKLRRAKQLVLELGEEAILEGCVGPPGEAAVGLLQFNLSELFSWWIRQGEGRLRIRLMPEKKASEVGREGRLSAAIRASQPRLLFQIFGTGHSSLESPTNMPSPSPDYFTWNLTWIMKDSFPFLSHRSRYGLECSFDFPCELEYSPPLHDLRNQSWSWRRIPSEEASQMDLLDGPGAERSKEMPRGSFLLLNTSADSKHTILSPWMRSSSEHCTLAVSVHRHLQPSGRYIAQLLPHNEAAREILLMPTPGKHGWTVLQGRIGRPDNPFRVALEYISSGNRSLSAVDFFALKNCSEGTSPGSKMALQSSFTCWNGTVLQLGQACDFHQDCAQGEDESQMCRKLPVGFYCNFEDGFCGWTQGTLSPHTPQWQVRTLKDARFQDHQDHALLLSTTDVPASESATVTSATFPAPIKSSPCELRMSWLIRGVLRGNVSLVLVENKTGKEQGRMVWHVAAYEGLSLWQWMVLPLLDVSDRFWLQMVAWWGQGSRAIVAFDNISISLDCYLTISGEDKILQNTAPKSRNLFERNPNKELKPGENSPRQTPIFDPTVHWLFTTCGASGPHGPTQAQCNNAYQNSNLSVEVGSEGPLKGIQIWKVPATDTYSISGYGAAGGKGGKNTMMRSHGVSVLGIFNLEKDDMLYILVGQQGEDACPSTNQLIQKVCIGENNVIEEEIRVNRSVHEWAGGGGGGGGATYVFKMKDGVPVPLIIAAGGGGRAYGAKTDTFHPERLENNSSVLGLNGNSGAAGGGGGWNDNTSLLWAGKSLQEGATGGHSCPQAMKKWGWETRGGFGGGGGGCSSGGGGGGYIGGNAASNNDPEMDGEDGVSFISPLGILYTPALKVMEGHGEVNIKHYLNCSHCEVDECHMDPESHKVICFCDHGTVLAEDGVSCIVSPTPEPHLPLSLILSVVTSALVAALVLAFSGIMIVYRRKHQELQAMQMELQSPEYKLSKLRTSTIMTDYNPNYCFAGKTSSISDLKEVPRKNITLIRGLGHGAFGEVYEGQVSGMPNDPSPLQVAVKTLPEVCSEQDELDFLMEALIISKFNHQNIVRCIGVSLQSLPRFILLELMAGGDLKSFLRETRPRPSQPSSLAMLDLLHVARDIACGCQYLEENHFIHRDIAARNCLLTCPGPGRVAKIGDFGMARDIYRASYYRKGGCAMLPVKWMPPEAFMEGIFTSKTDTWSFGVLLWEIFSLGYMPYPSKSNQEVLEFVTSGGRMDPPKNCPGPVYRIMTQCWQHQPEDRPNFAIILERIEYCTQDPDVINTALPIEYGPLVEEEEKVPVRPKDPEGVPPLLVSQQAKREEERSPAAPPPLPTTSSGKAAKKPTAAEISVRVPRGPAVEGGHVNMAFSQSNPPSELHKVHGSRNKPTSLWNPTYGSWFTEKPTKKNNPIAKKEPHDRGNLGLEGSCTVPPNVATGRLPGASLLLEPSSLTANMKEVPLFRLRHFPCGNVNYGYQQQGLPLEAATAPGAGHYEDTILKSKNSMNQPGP

## O=C(COC(=O)c1ccc([N+](=O)[O-])s1)NCCc1ccccc1
[1]
  IC50: 3230 nM (active)

## COCC/N=c1\scc(-c2cccs2)n1/N=C/c1ccc(O)c(O)c1O
[2]
  CC50: 22800 nM (active)
[3]
  IC50: > 16000 nM (inactive)
[4]
  IC50: 42900 nM (active)

## OC1CCC(Nc2cc(Cl)nc(-c3c[nH]c4ncccc34)n2)CC1 (centres undefined)
[5]
  Ki: 200 nM (active)
[6]
  Ki: > 5010 nM (inactive)
[7]
  Ki: 200 nM (active)
[8]
  Ki: > 2510 nM (inactive)
[9]
  Ki: > 3160 nM (inactive)
[10]
  Ki: > 2510 nM (inactive)
[11]
  Ki: 158 nM (active)
[12]
  Ki: 398 nM (active)
[13]
  Ki: > 3980 nM (inactive)
[14]
  Ki: > 1260 nM (inactive)
[15]
  Ki: > 2510 nM (inactive)
[16]
  Ki: 1260 nM (active)
[17]
  Ki: 31.6 nM (active)
[18]
  Ki: 251 nM (active)
[19]
  Ki: > 1580 nM (inactive)
[20]
  Ki: > 10000 nM (inactive)
[21]
  Ki: > 1580 nM (inactive)
[22]
  Ki: 3980 nM (active)
[23]
  Ki: > 1260 nM (inactive)
[24]
  Ki: 794 nM (active)
[25]
  Ki: > 2510 nM (inactive)
[26]
  Ki: 7.94 nM (active)
[27]
  Ki: 200 nM (active)
[28]
  Ki: 50.1 nM (active)
[29]
  Ki: 3.98 nM (active)
[30]
  Ki: 3980 nM (active)
[31]
  Ki: > 2000 nM (inactive)
[32]
  Ki: > 2510 nM (inactive)
[33]
  Ki: > 2000 nM (inactive)
[34]
  Ki: > 794 nM (inactive)
[35]
  Ki: > 3160 nM (inactive)
[36]
  Ki: > 2000 nM (inactive)
[37]
  Ki: 2510 nM (active)
[38]
  Ki: > 1580 nM (inactive)
[39]
  Ki: 100 nM (active)
[40]
  Ki: 251 nM (active)
[41]
  Ki: > 1580 nM (inactive)
[42]
  Ki: 1260 nM (active)
[43]
  Ki: > 3160 nM (inactive)
[44]
  Ki: > 2510 nM (inactive)
